8 compounds from patent US10722593B2, “Anti-cancer compounds and conjugates thereof” (SIRENAS LLC, priority 2015, dated 2020) can be followed below.

As usually defined, the IC50 is the concentration needed to halve the response being measured. Low values mean inhibition by little substance, high ones a need for much substance.

Square brackets hold non-standard residues; d marks the D form. Peptide text beside a SMILES is read from it. * marks the point of attachment. Dolaproine = CO[C@@H]([C@@H]1CCCN1)[C@@H](C)C(=O)O; Dil = CC[C@H](C)[C@H](NC)[C@@H](CC(=O)O)OC; dVal(3-OH) = CC(C)(O)[C@@H](N)C(=O)O; Val(3-OH) = CC(C)(O)[C@H](N)C(=O)O; Doe = c1ccc(C[C@H](N*)c2nccs2)cc1; X1 = C[C@@H](N*)[C@@H](O)c1ccccc1; NMeV = CN[C@H](C(=O)O)C(C)C; NMeAib = CNC(C)(C)C(=O)O; Aib = CC(C)(N)C(=O)O

Common to all, as to assay type: cell-based
The subject of assay [1] is BT-474 human mammary gland ductal carcinoma cells. The assay is described as follows: Inhibitory response against BT-474 cells (Cell Titer-Glo). To be noted: 72 hours of culture, inhibition of cell growth. The protocol: (§1) BT-474 human mammary gland ductal carcinoma cells were seeded in a clear polystyrene 96-well microculture plate (Corning® Costar® 96-well flat bottom plate, Cat. #3997) in a total volume of 90 μL/well. After 24 hours of incubation in a humidified incubator at 37° C. with 5% CO2 and 95% air, 10 μL of 10×, serially diluted test agents in growth medium were added to each well (10 pt dose response curve, highest concentration 10 M of test agent). After 72 hours of culture in a humidified incubator at 37° C., in an atmosphere of 5% CO2 and 95% air, the plated cells and Cell Titer-Glo® (Promega G7571) reagents were brought to room temperature to equilibrate for 30 minutes. 100 μL of Cell Titer-Glo® reagent was added to each well. The plate was shaken for two minutes and then left to equilibrate for ten minutes. The media/Cell Titer-Glo® reagent was transferred to a white polystyrene 96-well microculture plate (Corning® Costar® 96-well flat bottom plate, Cat. #3917) before reading luminescence on a Tecan GENios microplate reader.
(§2) Percent inhibition of cell growth was calculated relative to untreated control wells. The IC50 value for the test agents was determined using Prism 6.05 by curve-fitting of the data using the following four parameter-logistic equation:
(§3) [formula] where Top is the maximal % of control absorbance, Bottom is the minimal % of control absorbance at the highest agent concentration, Y is the % of control absorbance, X is the agent concentration, IC50 is the concentration of agent that inhibits cell growth by 50% compared to the control cells, and n is the slope of the curve.

The test system of assay [2] is MES-SA/Dx (multidrug-resistant human uterine sarcoma) cells. The assay is described as follows: Inhibitory response against MES-SA/Dx cells (Cell Titer-Glo). To be noted: 72 hours of culture, inhibition of cell growth. Here is the method: MES-SA/Dx (multidrug-resistant human uterine sarcoma) cells are seeded in a clear polystyrene 96-well microculture plate in a total volume of 90 μL/well. After 24 hours of incubation in a humidified incubator at 37° C. with 5% CO2 and 95% air, 10 μL of 10×, serially diluted test agents in growth medium are added to each well. After 72 hours of culture in a humidified incubator at 37° C., in an atmosphere of 5% CO2 and 95% air, the plated cells and Cell Titer-Glo® (Promega G7571) reagents are brought to room temperature to equilibrate for 30 minutes. 100 μL of Cell Titer-Glo® reagent are added to each well. The plate is shaken for two minutes and then left to equilibrate for ten minutes. The media/Cell Titer-Glo® reagent is transferred to a polystyrene 96-well microculture plate before reading luminescence on a Tecan GENios microplate reader.
Percent inhibition of cell growth is calculated relative to untreated control wells. The IC50 value for the test agents is determined using Prism 6.05 by curve-fitting of the data using the following four parameter-logistic equation: […]
On the technique in general: Cellular ATP, detected with luciferase, serves as a proxy for viable cell number.

The subject of assay [3] is MES-SA (human uterine sarcoma) cells. The assay is described as follows: Inhibitory response against MES-SA cells (Cell Titer-Glo). The conditions noted are these: 72 hours of culture, inhibition of cell growth. The protocol:
as §1, with “MES-SA (human uterine sarcoma)” for “BT-474 human mammary gland ductal carcinoma”, “μM” for “M”
Percent inhibition of cell growth is calculated relative to untreated control wells. The IC50 value for the test agents is determined using Prism 6.05 by curve-fitting of the data using the following four parameter-logistic equation:
as §3

For assay [4], the system named is HCC1954 cells. The assay is described as follows: Inhibitory response against HCC1954 cells (method analogous to BT-474). The conditions noted are these: Homo sapiens, inhibition of cell growth. The protocol:
as §1, §2, §3
Inhibitory response of test compounds against HCC1954 cells was determined using a method analogous to that used for BT-474 cells.

As to `CC[C@H](C)[C@@H]([C@@H](CC(=O)N1CCC[C@H]1[C@H](OC)[C@@H](C)C(=O)N[C@@H](Cc1ccccc1)c1nccs1)OC)N(C)C(=O)[C@@H](NC(=O)[C@H](C(C)C)N(C)C)C(C)(C)O` [Compound 101], the IC50 in assay [1] turned out to be 2.2 pM; in assay [2] it was 6370 pM; in assay [3], 35 pM; in assay [4], 4 pM.
For `CC[C@H](C)[C@@H]([C@@H](CC(=O)N1CCC[C@H]1[C@H](OC)[C@@H](C)C(=O)N[C@@H](Cc1ccccc1)c1nccs1)OC)N(C)C(=O)[C@@H](NC(=O)C(C)(C)N)C(C)(C)O` [Compound 113] (H-[Aib][Val(3-OH)][Dil][Dolaproine]-Doe), the results for the half-inhibitory concentration (IC50) in assay [1] and in assay [4] were 1220 pM and 1240 pM, respectively.
Regarding `CC[C@H](C)[C@@H]([C@@H](CC(=O)N1CCC[C@H]1[C@H](OC)[C@@H](C)C(=O)N[C@H](C)[C@@H](O)c1ccccc1)OC)N(C)C(=O)[C@@H](NC(=O)C(C)(C)NC)C(C)(C)O` [Compound 110] (H-[NMeAib][Val(3-OH)][Dil][Dolaproine]-X1), the IC50 in assay [1] was 9090 pM; in assay [3], 4180 pM; in assay [4], 2920 pM.
`CC[C@H](C)[C@@H]([C@@H](CC(=O)N1CCC[C@H]1[C@H](OC)[C@@H](C)C(=O)N[C@@H](Cc1ccccc1)c1nccs1)OC)N(C)C(=O)[C@H](NC(=O)C(C)(C)NC)C(C)(C)O` [Compound 114] (H-[NMeAib][dVal(3-OH)][Dil][Dolaproine]-Doe): the IC50 in assay [1] was determined as 61.6 pM; in assay [4], 17 pM.
Turning to `CC[C@H](C)[C@@H]([C@@H](CC(=O)N1CCC[C@H]1[C@H](OC)[C@@H](C)C(=O)N[C@H](C)[C@@H](O)c1ccccc1)OC)N(C)C(=O)[C@@H](NC(=O)[C@@H](NC)C(C)C)C(C)(C)O` [Compound 109] (H-[NMeV][Val(3-OH)][Dil][Dolaproine]-X1), the IC50 in assay [1] is 26100 pM; in assay [3], 14900 pM; in assay [4] it was 10900 pM.
For `CC[C@H](C)[C@@H]([C@@H](CC(=O)N1CCC[C@H]1[C@H](OC)[C@@H](C)C(=O)N[C@@H](Cc1ccccc1)c1nccs1)OC)N(C)C(=O)[C@@H](NC(=O)C(C)(C)NC)C(C)(C)O` [Compound 107] (H-[NMeAib][Val(3-OH)][Dil][Dolaproine]-Doe), the IC50 in assay [1] was determined as 64 pM; in assay [4] it was 30 pM.
The corresponding values for `CC[C@H](C)[C@@H]([C@@H](CC(=O)N1CCC[C@H]1[C@H](OC)[C@@H](C)C(=O)N[C@@H](Cc1ccccc1)c1nccs1)OC)N(C)C(=O)[C@H](CSC)NC(=O)C(C)(C)NC` [Compound 111] (H-[NMeAib]C(Me)[Dil][Dolaproine]-Doe) are 863 pM and 65.6 pM.
The corresponding values for `CC[C@H](C)[C@@H]([C@@H](CC(=O)N1CCC[C@H]1[C@H](OC)[C@@H](C)C(=O)N[C@H](C)[C@@H](O)c1ccccc1)OC)N(C)C(=O)[C@@H](NC(=O)[C@H](C(C)C)N(C)C)C(C)(C)O` [Compound 108] are 140 pM and 460 pM.
